Read-outs that look alike come from different tables or passages of the source.
Assays:
[1] = target: PameOBP1 (Periplaneta americana, UniProt B6E9U7); experiment: Competitive fluorescence binding assay (1-NPN displacement), recombinant PameOBP1
Description: (§1) The PameOBPs were expressed by using Escherichia coli expression system. To generate properly folded protein, the signal peptide predicted by SignalIP 4.1 [18] was removed. The two PameOBPs were amplified by gene special primers (S1 Table) with the cDNA as the template. The purified PCR products were ligated into expression vector pGEX-4T-1 using In-Fusion® HD Cloning Kit (Clontech, Mountain View, CA) according to the manufacturer’s instructions. The recombinant plasmid was transformed into E. coli BL21 (DE3) cells, and then expression and purification was performed according to a previously reported protocol. Recombinant proteins in the supernatant were purified by an affinity chromatography column GSTrap FF (GE Healthcare, Piscataway, NJ, USA). The GST tags were cleaved from recombinant proteins using 400 μL of thrombin (1U/μL) while loaded on GSTrap FF column at 25°C for 10 h and allowed 12 h. After that, the recombinant proteins were eluted with PBS buffer. Finally, the eluted proteins were desalted using HiTrap Desalting (GE Healthcare), lyophilized, and stored at −80°C until use.
(§2) Emission fluorescence spectra were measured on a Hitachi F-4500 fluorescence spectrophotometer following our previous studies. Firstly, dissociation constants of the PameOBPs for N-phenyl-1-naphtylamine (1-NPN) were calculated to determine the suitability of 1-NPN as a fluorescence reporter. […] The binding data were analyzed following our previous studies.

[2] = target: PameOBP2 (Periplaneta americana, UniProt B6E9U8); experiment: Competitive fluorescence binding assay (1-NPN displacement), recombinant PameOBP2
Description: as §1, §2

[3] = target: PameOBP3 (Periplaneta americana, UniProt B6E9U9); experiment: Competitive fluorescence binding assay (1-NPN displacement), recombinant PameOBP3
Description: as §1, §2

[4] = 2 μM 1-NPN as fluorescent reporter, competitor 0.25–2.5 μM or 2–40 μM, read-out: PameOBP1 Ki
[5] = 2 μM 1-NPN as fluorescent reporter, competitor 0.25–2.5 μM or 2–40 μM, read-out: PameOBP2 Ki
[6] = 2 μM 1-NPN as fluorescent reporter, competitor 0.25–2.5 μM or 2–40 μM, read-out: PameOBP3 Ki
[7] = PameOBP1 Ki, 2 μM 1-NPN as fluorescent reporter, competitor 0.25–2.5 μM or 2–40 μM
[8] = PameOBP2 Ki, 2 μM 1-NPN as fluorescent reporter, competitor 0.25–2.5 μM or 2–40 μM
[9] = 2 μM 1-NPN as fluorescent reporter, competitor 0.25–2.5 μM or 2–40 μM, read-out: PameOBP1 IC50
[10] = 2 μM 1-NPN as fluorescent reporter, competitor 0.25–2.5 μM or 2–40 μM, read-out: PameOBP2 IC50

PameOBP3, sequence (B6E9U9 entry or part of it): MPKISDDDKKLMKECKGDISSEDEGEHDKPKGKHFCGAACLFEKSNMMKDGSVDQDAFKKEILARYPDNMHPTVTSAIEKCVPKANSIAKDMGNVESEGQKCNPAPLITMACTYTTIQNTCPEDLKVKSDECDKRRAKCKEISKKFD
PameOBP1, sequence (B6E9U7 entry or part of it): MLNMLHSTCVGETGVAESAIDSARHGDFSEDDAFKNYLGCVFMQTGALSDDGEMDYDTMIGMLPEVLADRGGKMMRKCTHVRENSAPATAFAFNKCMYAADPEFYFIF
PameOBP2, sequence (B6E9U8 entry or part of it): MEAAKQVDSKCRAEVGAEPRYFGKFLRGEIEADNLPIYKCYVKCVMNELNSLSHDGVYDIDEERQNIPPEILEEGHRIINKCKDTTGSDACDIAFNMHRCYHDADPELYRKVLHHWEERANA

| SMILES | Ki [1, 4] | Ki [2, 5] | Ki [3, 6] | further results |
| --- | --- | --- | --- | --- |
| CCCCCCCCCC=O [decanal] | > 40 µM | > 40 µM | > 40 µM | – |
| CC(=O)/C=C/C1=C(C)CCCC1(C)C [Beta- ionone] | – | – | – | IC50 [1]: 15.8 ± 2.1 µM; Ki [1, 7]: 14.4 ± 1.6 µM; IC50 [2]: 15 ± 1.1 µM; Ki [2, 8]: 12.2 ± 0.9 µM |
| CCC/C=C/C=O [trans-2-hexenal] | – | – | – | Ki [1, 7]: > 40 µM; Ki [2, 8]: > 40 µM; Ki [3]: > 40 µM |
| CCCCCCO [1-hexanol] | > 40 µM | > 40 µM | > 40 µM | – |
| CC(=O)OC/C=C(\C)CCC=C(C)C [Geranyl acetate] | > 40 µM | 32.6 ± 2.95 µM | – | IC50 [1, 9]: > 40 µM; IC50 [2, 10]: 40 ± 3.16 µM |
| CCCCCCCCC(CO)CCCCCC (centres unmarked) [2-hexyl-1-decanol] | > 40 µM | > 40 µM | > 40 µM | – |
| CCCCCC(C)O (centres unmarked) [2-heptanol] | > 40 µM | > 40 µM | > 40 µM | – |
| OCCc1ccccc1 [phenethyl alcohol] | > 40 µM | > 40 µM | > 40 µM | – |
| CCCCCCCOC(C)=O [heptyl acetate] | > 40 µM | > 40 µM | > 40 µM | – |
| C=C1CC/C=C(\C)CC[C@@H]2[C@@H]1CC2(C)C [beta-caryophyllene] | – | – | – | Ki [1, 7]: > 40 µM; Ki [2, 8]: > 40 µM; Ki [3]: > 40 µM |
| C[C@@H]1CC[C@H]2C(C)(C)[C@H]3C[C@@]12CC[C@@]3(C)O [(+)-cedrol] | – | – | – | Ki [1, 7]: > 40 µM; Ki [2, 8]: > 40 µM; Ki [3]: > 40 µM |
| CCCCCCCCCCCCCCCCC [heptadecane] | > 40 µM | > 40 µM | > 40 µM | – |
| C=CC(C)(O)CCC=C(C)CCC=C(C)C (mixture of isomers) [Nerolidol] | > 40 µM | 26.6 ± 2.79 µM | – | IC50 [1, 9]: > 40 µM; IC50 [2, 10]: 32.9 ± 4.21 µM |
| CCCC(=O)OCC [ethyl butyrate] | > 40 µM | > 40 µM | > 40 µM | – |
| CC/C=C\CCOC(=O)CCCCC [Cis-3-hexenyl hexanoate] | 22.5 ± 2.6 µM | > 40 µM | – | IC50 [1, 9]: 24.6 ± 1.9 µM; IC50 [2, 10]: > 40 µM |
| CCCC(O)CC (centres unmarked) [3-hexanol] | > 40 µM | > 40 µM | > 40 µM | – |

| SMILES | Ki [1, 4] | Ki [2, 5] | Ki [3, 6] | further results |
| --- | --- | --- | --- | --- |
| c1ccc2[nH]ccc2c1 [indole] | – | – | – | Ki [1, 7]: > 40 µM; Ki [2, 8]: > 40 µM; Ki [3]: > 40 µM |
| CCCCCOC(C)=O [pentyl acetate] | > 40 µM | > 40 µM | > 40 µM | – |
| CC(=O)c1ccccc1 [acetophenone] | > 40 µM | > 40 µM | > 40 µM | – |
| CCCCCCCCCCCCC [tridecane] | > 40 µM | > 40 µM | > 40 µM | – |
| CCCCCCCCCCC [undecane] | > 40 µM | > 40 µM | > 40 µM | – |
| CCCCCCCCCCCCCCCCCC [octadecane] | > 40 µM | > 40 µM | > 40 µM | – |
| CCCCCCCCOC(C)=O [octyl acetate] | > 40 µM | > 40 µM | > 40 µM | – |
| CCCCCCCCCOC(C)=O [nonyl acetate] | > 40 µM | > 40 µM | > 40 µM | – |
| CC/C=C\CCOC(C)=O [cis-3-hexenyl acetate] | > 40 µM | > 40 µM | > 40 µM | – |
| CCOC(=O)CC [ethyl propionate] | > 40 µM | > 40 µM | > 40 µM | – |
| CCOC(=O)c1ccccc1 [ethyl benzoate] | – | – | – | Ki [1, 7]: > 40 µM; Ki [2, 8]: > 40 µM; Ki [3]: > 40 µM |
| CCc1ccccc1 [ethylbenzene] | – | – | – | Ki [1, 7]: > 40 µM; Ki [2, 8]: > 40 µM; Ki [3]: > 40 µM |
| CC/C=C\CCOC(=O)CCC [cis-3-hexenyl butyrate] | > 40 µM | > 40 µM | > 40 µM | – |
| CCCCCC=O [hexanal] | – | – | – | Ki [1, 7]: > 40 µM; Ki [2, 8]: > 40 µM; Ki [3]: > 40 µM |
| C=CC(C)(O)CC/C=C(\C)CCC=C(C)C (stereo not drawn) [Trans-nerolidol] | > 40 µM | 12.6 ± 0.98 µM | – | IC50 [1, 9]: > 40 µM; IC50 [2, 10]: 15.6 ± 1.3 µM |
| CCCCCCOC(=O)CCC [hexyl butyrate] | > 40 µM | > 40 µM | > 40 µM | – |

Reference: article PMC5232348, “Molecular and Functional Characterization of Three Odorant-Binding Protein from Periplaneta americana” (PLoS ONE, 2017)
